Data published in patent US20250270330A1, “TREATMENT OF HEADACHE DISORDERS WITH NK3 MODULATORS” (Kallyope, Inc., priority 2022, published 2025).

How the values were obtained:
luteinizing hormone (LH) = assay: Luteinizing hormone (LH) inhibition studies, serum LH by ELISA; format: in vivo, castrated male Sprague-Dawley rats; details: for reduction in LH levels: 100 mg/kg
Procedure: Studies measuring LH were performed on castrated male Sprague-Dawley rats. Briefly, animals were castrated through a midline scrotal incision using Zoletil® 50 as an anesthetic. Surgeries were performed at least 15 days before compound testing.
Serum was collected at baseline, then every 15 minutes starting from 30 minutes after PO […] dosing with vehicle, fezolinetant (30 mg/kg), or SB 235375 (30 and 100 mg/kg). Blood was collected from the jugular vein, transferred into 1.5-mL centrifuge tubes, and centrifuged at 8000 g for 15 minutes to separate the serum. Serum LH levels were determined using a rat luteinizing hormone ELISA kit (Colorimetric, Novus). The assays were performed following the manufacturer's protocol. Group sizes were from n=10 for the vehicle and SB 235375 groups and n=4 for fezolinetant.

[1] = system: rats with inflammatory soup-sensitized trigeminal ganglia; assay: In vivo migraine headache model: von Frey periorbital threshold after GTN challenge; parameters: species or system Sprague-Dawley rats
Procedure: Surgeries were performed as previously described in Oshinsky, M. L. & Gomonchareonsiri, S., Episodic dural stimulation in awake rats: a model for recurrent headache, 47 HEADACHE 1026-1036 (2007). Adult male Sprague-Dawley rats were habituated towards handling for 1-2 weeks before undergoing dural cannulation surgery under isoflurane anesthesia. Attention was given not to disturb the dura. A custom flange guide cannula (22GA, Plastics One) was inserted. The cannula was fixed to the bone with small screws and dental cement.
After 1-2 weeks of recovery from surgery, animals received supradural infusions of an inflammatory soup comprising 2 mM histamine, bradykinin, serotonin, 0.2 mM prostaglandin E2 under brief isoflurane anesthesia (1.5-3%) for 5 consecutive days (1/day) (i.e., the 5-day sensitization period).
The design was within-subjects with the same animals receiving multiple treatments in a crossover fashion with at least one week washout between each treatment. Evoked sensory testing for mechanical allodynia was done by von Frey periorbital threshold testing. Sensory testing occurred during the day using von Frey filaments with reproducible calibrated buckling forces varying from 0.4-10 g and utilizing the up-and-down method. See Dixon, W. J., The Up-and-Down Method for Small Samples, 60 J. AM. STAT. ASSOC., 967-978 (1965); Chaplan, S. R., Bach, F. W., Pogrel, J. W., Chung, J. M. & Yaksh, T. L., Quantitative assessment of tactile allodynia in the rat paw, 53 J. NEUROSCI. METHODS 55-63 (1994) (hereinafter “Chaplan 1994”). Based on the response pattern and the force of the final filament, the periorbital threshold (g) was calculated according to the prior art method set forth, e.g., in Chaplan 1994 and Bonin, R. P., Bories, C. & De Koninck, Y., A simplified up-down method (SUDO) for measuring mechanical nociception in rodents using von Frey filaments, 10 MOL. PAIN 26 (2014). A blinded investigator tested periorbital sensitivity before drug administration, and 45 min and 1.5 h after drug administration. Studies were conducted with n=13-22.

Cc1nsc(-c2nnc3n2CCN(C(=O)c2ccc(F)cc2)[C@@H]3C)n1 [fezolinetant]
mean LH value (luteinizing hormone (LH); 30 mg/kg PO, 0 min (baseline)): 37.3 ng/mL
mean LH value (luteinizing hormone (LH); 30 mg/kg PO, 30 min): 15.2 ng/mL
mean LH value (luteinizing hormone (LH); 30 mg/kg PO, 90 min): 6.1 ng/mL
mean LH value (luteinizing hormone (LH); 30 mg/kg PO, 150 min): 5.5 ng/mL
reduction in LH levels compared to vehicle (luteinizing hormone (LH); 30 mg/kg, 30 minutes): approximately 60%
reduction in LH levels compared to vehicle (luteinizing hormone (LH); 30 mg/kg, 90 minutes): roughly 85%
reduction in LH levels compared to vehicle (luteinizing hormone (LH); 30 mg/kg, 150 minutes): roughly 85%
LH serum concentrations (luteinizing hormone (LH); 30 mg/kg, all measured time points (30, 90, and 150 min)): significantly reduced
withdrawal (periorbital) threshold ([1]; GTN + 30 mg/kg PO, 90 min timepoint, vs saline+vehicle or GTN+vehicle): significantly higher
withdrawal (periorbital) threshold ([1]; GTN + 100 mg/kg PO, both timepoints (45 min, 1.5 h), vs each control group): significantly higher

CC[C@H](NC(=O)c1c(OCC(=O)O)c(-c2ccccc2)nc2ccccc12)c1ccccc1 [SB 235375]
mean LH value (luteinizing hormone (LH); 30 mg/kg PO, 0 min (baseline)): 31.6 ng/mL
mean LH value (luteinizing hormone (LH); 30 mg/kg PO, 30 min): 33.4 ng/mL
mean LH value (luteinizing hormone (LH); 30 mg/kg PO, 90 min): 35.8 ng/mL
mean LH value (luteinizing hormone (LH); 30 mg/kg PO, 150 min): 30.4 ng/mL
increase in LH levels (luteinizing hormone (LH); 30 mg/kg, 30 minutes): ~+4%
increase in LH levels (luteinizing hormone (LH); 30 mg/kg, 90 minutes): ~+13%
reduction in LH levels compared to vehicle (luteinizing hormone (LH); 30 mg/kg, 150 minutes): roughly 4%
mean LH value (luteinizing hormone (LH); 100 mg/kg PO, 0 min (baseline)): 34.7 ng/mL
mean LH value (luteinizing hormone (LH); 100 mg/kg PO, 30 min): 25.7 ng/mL
mean LH value (luteinizing hormone (LH); 100 mg/kg PO, 90 min): 29.7 ng/mL
mean LH value (luteinizing hormone (LH); 100 mg/kg PO, 150 min): 31.1 ng/mL
reduction in LH levels (luteinizing hormone (LH); 30 minutes): roughly 26%
reduction in LH levels (luteinizing hormone (LH); 90 minutes): ~14%
reduction in LH levels (luteinizing hormone (LH); 150 minutes): ~10%
LH levels compared to the vehicle-treated group (luteinizing hormone (LH); 30 and 100 mg/kg): did not exhibit a significant difference
pain (periorbital) threshold ([1]; GTN + 30 and 100 mg/kg PO, 45, 90 minutes, vs GTN and vehicle): higher pain thresholds
